Assay results taken from ChEMBL document CHEMBL4359852, “Design, synthesis and biological evaluation of novel 5-(piperazin-1-yl)quinolin-2(1H)-one derivatives as potential chitin synthase inhibitors and antifungal agents” (Eur J Med Chem, 2019).
Values after ≈ are worked out from the molar mass of the structure shown.

Assays:
Pseudomonas aeruginosa = assay: Antibacterial activity against Pseudomonas aeruginosa ATCC 9027 assessed as reduction in bacterial cell growth incubated for overnight by two-fold serial dilution method; format: functional
Saccharomyces cerevisiae = assay: Inhibition of Saccharomyces cerevisiae CGMCC 2.145 chitin synthase using GlcNAc and UDP-GlcNAc as substrate at 300 ug/ml incubated for 60 mins by microplate reader analysis relative to control
Candida albicans = assay: Antifungal activity against Candida albicans ATCC 76615 assessed as reduction in fungal cell growth incubated for 48 hrs by two-fold serial dilution method; format: functional; settings: ATCC 76615, 48 h
Cryptococcus neoformans = assay: Antifungal activity against Cryptococcus neoformans ATCC 32719 assessed as reduction in fungal cell growth incubated for 48 hrs by two-fold serial dilution method; format: functional; settings: ATCC 32719, 48 h
Aspergillus flavus = assay: Antifungal activity against Aspergillus flavus ATCC 16870 assessed as reduction in fungal cell growth incubated for 48 hrs by two-fold serial dilution method; format: functional; settings: ATCC 16870, 48 h
Staphylococcus aureus [1] = assay: Antibacterial activity against Staphylococcus aureus ATCC 25923 assessed as reduction in bacterial cell growth incubated for overnight by two-fold serial dilution method; format: functional
Staphylococcus aureus [2] = assay: Antibacterial activity against methicillin resistant Staphylococcus aureus N 315 assessed as reduction in bacterial cell growth incubated for overnight by two-fold serial dilution method; format: functional
Bacillus subtilis = assay: Antibacterial activity against Bacillus subtilis ATCC 6633 assessed as reduction in bacterial cell growth incubated for overnight by two-fold serial dilution method; format: functional
Proteus vulgaris = assay: Antibacterial activity against Bacillus proteus ATCC 8427 assessed as reduction in bacterial cell growth incubated for overnight by two-fold serial dilution method; format: functional
Escherichia coli = assay: Antibacterial activity against Escherichia coli JM109 assessed as reduction in bacterial cell growth incubated for overnight by two-fold serial dilution method; format: functional

SMILES | MIC (Pseudomonas aeruginosa) [µg/mL] | inhibition (Saccharomyces cerevisiae) [%] | MIC (Candida albicans) [µg/mL] | MIC (Cryptococcus neoformans) [µg/mL] | MIC (Aspergillus flavus) [µg/mL] | MIC (Staphylococcus aureus [1]) [µg/mL] | MIC (Staphylococcus aureus [2]) [µg/mL] | MIC (Bacillus subtilis) [µg/mL] | MIC (Proteus vulgaris) [µg/mL] | MIC (Escherichia coli) [µg/mL]
Cc1ccc(NCC(O)CN2CCN(c3cccc4c3CCC(=O)N4)CC2)cc1.Cl (racemic) | 128 | 17.6 | 128 | > 512 | 128 | 64 | 64 | 128 | 64 | 128
Cc1ccccc1NCC(O)CN1CCN(c2cccc3c2CCC(=O)N3)CC1.Cl (racemic) | 128 | 28.4 | 128 | 256 | 256 | 128 | 128 | 128 | 128 | 256
Cl.O=C1CCc2c(cccc2N2CCN(CC(O)Cn3cnnc3)CC2)N1 (racemic) | 128 | 30.8 | 64 | 128 | 256 | 128 | 256 | 128 | 64 | 64
COc1ccccc1NCC(O)CN1CCN(c2cccc3c2CCC(=O)N3)CC1.Cl (racemic) | 128 | 45.4 | 128 | 512 | 256 | 256 | 128 | 256 | 256 | 258
Cl.O=C1CCc2c(cccc2N2CCN(CC(O)CNCc3ccccc3)CC2)N1 (racemic) | 256 | 18.1 | 128 | > 512 | > 512 | 256 | 128 | 256 | 256 | 256
Cc1cccc(C)c1NCC(O)CN1CCN(c2cccc3c2CCC(=O)N3)CC1.Cl (racemic) | 128 | 40.7 | 128 | 256 | 256 | 128 | 256 | 128 | 128 | 128
CCN(CC)CC(O)CN1CCN(c2cccc3c2CCC(=O)N3)CC1.Cl (racemic) | 128 | 39.4 | 128 | 256 | 512 | 256 | 256 | 512 | 512 | 512
CC(C)(C)NCC(O)CN1CCN(c2cccc3c2CCC(=O)N3)CC1.Cl (racemic) | 128 | 48.3 | 128 | 256 | 256 | 256 | 256 | 512 | 256 | 256
Cl.O=C1CCc2c(cccc2N2CCN(CC(O)CNc3cccc4ccccc34)CC2)N1 (racemic) | 128 | 47.5 | 128 | 256 | 512 | 128 | 128 | 256 | 128 | 128
OC(Cn1cncn1)(Cn1cncn1)c1ccc(F)cc1F [FLUCONAZOLE] |  |  | 16 (≈ 52.2 µM) | 4 (≈ 13.1 µM) | 64 (≈ 209 µM) |  |  |  |  | 
CCn1cc(C(=O)O)c(=O)c2cc(F)c(N3CCNCC3)cc21 [NORFLOXACIN] | 0.5 (≈ 1.57 µM) |  |  |  |  | 2 (≈ 6.26 µM) | 2 (≈ 6.26 µM) | 1 (≈ 3.13 µM) | 2 (≈ 6.26 µM) | 1 (≈ 3.13 µM)
CN[C@@H]1[C@H](O[C@H]2[C@H](O[C@H]3[C@H](O)[C@@H](O)[C@H](N=C(N)N)[C@@H](O)[C@@H]3N=C(N)N)O[C@@H](C)[C@]2(O)C=O)O[C@@H](CO)[C@H](O)[C@H]1O.CN[C@@H]1[C@H](O[C@H]2[C@H](O[C@H]3[C@H](O)[C@@H](O)[C@H](N=C(N)N)[C@@H](O)[C@@H]3N=C(N)N)O[C@@H](C)[C@]2(O)C=O)O[C@@H](CO)[C@H](O)[C@H]1O.O=S(=O)(O)O.O=S(=O)(O)O.O=S(=O)(O)O [STREPTOMYCIN SULFATE] | 16 |  |  |  |  | 8 | 32 | 8 | 16 | 4
